Results: the NIST ThermoML archive (doi:10.1016/j.jct.2013.02.022)
± gives the expanded uncertainty stated by the source.

Assays:
[1] = refractive index (Na D-line) (dimensionless); xn = mol fraction of the nth substance listed; settings: 101 kPa, Liquid, Standard Abbe refractometry
[2] = xn = mol fraction of the nth substance listed; settings: 101 kPa, Liquid, Vibrating tube method
[3] = Liquid; for mass density: 101 kPa, Vibrating tube method; for vapor or sublimation pressure: Ebulliometric method (Recirculating still)
[4] = refractive index (Na D-line) (dimensionless); settings: 101.33 kPa, Liquid, Standard Abbe refractometry

CCOC(C)=O [ethyl acetate] + CCCC(=O)[O-].C[NH2+]CCO
refractive index ([1]; 303.15 K, x1 = 1): 1.3672 ± 0.0008
mass density ([2]; 303.15 K, x1 = 1): 888.76 ± 1 kg/m3
mass density ([2]; 308.15 K, x1 = 1): 882.58 ± 1 kg/m3
mass density ([2]; 313.15 K, x1 = 1): 876.34 ± 1 kg/m3
mass density ([2]; 318.16 K, x1 = 1): 870.06 ± 1 kg/m3
mass density ([2]; 323.15 K, x1 = 1): 863.73 ± 1 kg/m3

CCCOC(C)=O [propyl ethanoate]
mass density ([3]; 298.15 K): 882.61 ± 1 kg/m3
mass density ([3]; 308.14 K): 871.38 ± 1 kg/m3
mass density ([3]; 313.15 K): 865.7 ± 1 kg/m3
mass density ([3]; 318.15 K): 860 ± 1 kg/m3
mass density ([3]; 323.15 K): 854.26 ± 1 kg/m3
vapor or sublimation pressure ([3]; 374 K): 101.3 ± 1 kPa
refractive index ([4]; 313.15 K): 1.3741 ± 0.0008

CCOC(C)=O [ethyl acetate]
mass density ([3]; 298.15 K): 894.9 ± 1 kg/m3
mass density ([3]; 303.15 K): 888.76 ± 1 kg/m3
mass density ([3]; 308.15 K): 882.58 ± 1 kg/m3
mass density ([3]; 313.15 K): 876.34 ± 1 kg/m3
mass density ([3]; 318.16 K): 870.06 ± 1 kg/m3
mass density ([3]; 323.15 K): 863.73 ± 1 kg/m3
vapor or sublimation pressure ([3]; 349.8 K): 101.3 ± 1 kPa
refractive index ([4]; 303.15 K): 1.3672 ± 0.0008

COC(C)=O [methyl ethanoate] + CCCC(=O)[O-].C[NH2+]CCO
refractive index ([1]; 288.15 K, x1 = 1): 1.365 ± 0.0008
mass density ([2]; 288.15 K, x1 = 1): 939.9 ± 1 kg/m3
mass density ([2]; 293.14 K, x1 = 1): 933.4 ± 1 kg/m3
mass density ([2]; 298.14 K, x1 = 1): 926.8 ± 1 kg/m3
mass density ([2]; 303.14 K, x1 = 1): 920.2 ± 1 kg/m3
mass density ([2]; 308.14 K, x1 = 1): 913.5 ± 1 kg/m3
mass density ([2]; 313.14 K, x1 = 1): 906.7 ± 1 kg/m3
mass density ([2]; 318.14 K, x1 = 1): 899.9 ± 1 kg/m3
mass density ([2]; 323.15 K, x1 = 1): 893 ± 1 kg/m3

COC(C)=O [methyl ethanoate]
mass density ([3]; 288.15 K): 939.9 ± 1 kg/m3
mass density ([3]; 293.14 K): 933.4 ± 1 kg/m3
mass density ([3]; 298.14 K): 926.8 ± 1 kg/m3
mass density ([3]; 303.14 K): 920.2 ± 1 kg/m3
mass density ([3]; 308.14 K): 913.5 ± 1 kg/m3
mass density ([3]; 313.14 K): 906.7 ± 1 kg/m3
mass density ([3]; 318.14 K): 899.9 ± 1 kg/m3
mass density ([3]; 323.15 K): 893 ± 1 kg/m3
vapor or sublimation pressure ([3]; 330.1 K): 101.3 ± 1 kPa
refractive index ([4]; 288.15 K): 1.365 ± 0.0008

CCCC(=O)[O-].C[NH2+]CCO [N-methyl-2-hydroxyethylammonium butanoate] + CCCOC(C)=O
refractive index ([1]; 313.15 K, x2 = 0): 1.4504 ± 0.0009
refractive index ([1]; 313.15 K, x2 = 0.0785): 1.4483 ± 0.0009
refractive index ([1]; 313.15 K, x2 = 0.1247): 1.4457 ± 0.0009
refractive index ([1]; 313.15 K, x2 = 0.207): 1.4417 ± 0.0008
refractive index ([1]; 313.15 K, x2 = 0.3035): 1.4365 ± 0.0008
refractive index ([1]; 313.15 K, x2 = 0.4177): 1.4288 ± 0.0008
refractive index ([1]; 313.15 K, x2 = 0.5088): 1.4222 ± 0.0008
refractive index ([1]; 313.15 K, x2 = 0.6042): 1.4146 ± 0.0008
refractive index ([1]; 313.15 K, x2 = 0.696): 1.4068 ± 0.0008
refractive index ([1]; 313.15 K, x2 = 0.7939): 1.3991 ± 0.0008
refractive index ([1]; 313.15 K, x2 = 0.8936): 1.387 ± 0.0008
refractive index ([1]; 313.15 K, x2 = 0.9454): 1.3809 ± 0.0008
mass density ([2]; 308.15 K, x2 = 0): 1032.53 ± 1.3 kg/m3
mass density ([2]; 308.15 K, x2 = 0.0785): 1016.82 ± 1.2 kg/m3
mass density ([2]; 308.15 K, x2 = 0.4177): 981.77 ± 1.1 kg/m3
mass density ([2]; 308.15 K, x2 = 0.9454): 884.44 ± 1.1 kg/m3
mass density ([2]; 308.16 K, x2 = 0.1247): 1013.03 ± 1.2 kg/m3
mass density ([2]; 308.16 K, x2 = 0.207): 1003.47 ± 1.1 kg/m3
mass density ([2]; 308.16 K, x2 = 0.3035): 993.9 ± 1.1 kg/m3
mass density ([2]; 308.16 K, x2 = 0.5088): 968.89 ± 1.1 kg/m3
mass density ([2]; 308.16 K, x2 = 0.6042): 952.99 ± 1.1 kg/m3
mass density ([2]; 308.16 K, x2 = 0.696): 936.16 ± 1.1 kg/m3
mass density ([2]; 308.16 K, x2 = 0.7939): 917.53 ± 1.1 kg/m3
mass density ([2]; 308.16 K, x2 = 0.8936): 896.61 ± 1.1 kg/m3
mass density ([2]; 313.15 K, x2 = 0.0785): 1013.32 ± 1.2 kg/m3
mass density ([2]; 313.15 K, x2 = 0.3035): 989.89 ± 1.1 kg/m3
mass density ([2]; 313.15 K, x2 = 0.4177): 977.59 ± 1.1 kg/m3
mass density ([2]; 313.15 K, x2 = 0.696): 931.3 ± 1.1 kg/m3
mass density ([2]; 313.16 K, x2 = 0): 1029.14 ± 1.3 kg/m3
mass density ([2]; 313.16 K, x2 = 0.1247): 1009.37 ± 1.2 kg/m3
mass density ([2]; 313.16 K, x2 = 0.207): 999.76 ± 1.1 kg/m3
mass density ([2]; 313.16 K, x2 = 0.5088): 964.73 ± 1.1 kg/m3
mass density ([2]; 313.16 K, x2 = 0.6042): 948.38 ± 1.1 kg/m3
mass density ([2]; 313.16 K, x2 = 0.7939): 912.41 ± 1.1 kg/m3
mass density ([2]; 313.16 K, x2 = 0.8936): 891 ± 1.1 kg/m3
mass density ([2]; 313.16 K, x2 = 0.9454): 878.87 ± 1.1 kg/m3
mass density ([2]; 318.15 K, x2 = 0.0785): 1009.82 ± 1.2 kg/m3
mass density ([2]; 318.15 K, x2 = 0.207): 996.08 ± 1.1 kg/m3
mass density ([2]; 318.15 K, x2 = 0.4177): 973.39 ± 1.1 kg/m3
mass density ([2]; 318.15 K, x2 = 0.696): 926.41 ± 1.1 kg/m3
mass density ([2]; 318.15 K, x2 = 0.7939): 907.24 ± 1.1 kg/m3
mass density ([2]; 318.16 K, x2 = 0): 1025.72 ± 1.3 kg/m3
mass density ([2]; 318.16 K, x2 = 0.1247): 1005.67 ± 1.2 kg/m3
mass density ([2]; 318.16 K, x2 = 0.3035): 985.85 ± 1.1 kg/m3
mass density ([2]; 318.16 K, x2 = 0.5088): 960.4 ± 1.1 kg/m3
mass density ([2]; 318.16 K, x2 = 0.6042): 943.75 ± 1.1 kg/m3
mass density ([2]; 318.16 K, x2 = 0.8936): 885.74 ± 1.1 kg/m3
mass density ([2]; 318.16 K, x2 = 0.9454): 873.25 ± 1.1 kg/m3
mass density ([2]; 323.15 K, x2 = 0.1247): 1001.94 ± 1.2 kg/m3
mass density ([2]; 323.15 K, x2 = 0.207): 992.3 ± 1.1 kg/m3
mass density ([2]; 323.15 K, x2 = 0.5088): 956.04 ± 1.1 kg/m3
mass density ([2]; 323.15 K, x2 = 0.6042): 939.06 ± 1.1 kg/m3
mass density ([2]; 323.15 K, x2 = 0.696): 921.47 ± 1.1 kg/m3
mass density ([2]; 323.16 K, x2 = 0): 1022.26 ± 1.3 kg/m3
mass density ([2]; 323.16 K, x2 = 0.0785): 1006.34 ± 1.2 kg/m3
mass density ([2]; 323.16 K, x2 = 0.3035): 981.79 ± 1.1 kg/m3
mass density ([2]; 323.16 K, x2 = 0.4177): 969.14 ± 1.1 kg/m3
mass density ([2]; 323.16 K, x2 = 0.7939): 901.89 ± 1.1 kg/m3
mass density ([2]; 323.16 K, x2 = 0.8936): 880 ± 1.1 kg/m3
mass density ([2]; 323.16 K, x2 = 0.9454): 867.59 ± 1.1 kg/m3

CCCC(=O)[O-].C[NH2+]CCO [N-methyl-2-hydroxyethylammonium butanoate]
mass density ([3]; 288.15 K): 1046 ± 1.3 kg/m3
mass density ([3]; 293.15 K): 1042.6 ± 1.3 kg/m3
mass density ([3]; 298.15 K): 1039.2 ± 1.3 kg/m3
mass density ([3]; 303.15 K): 1035.9 ± 1.3 kg/m3
mass density ([3]; 308.15 K): 1032.5 ± 1.3 kg/m3
mass density ([3]; 313.16 K): 1029.1 ± 1.3 kg/m3
mass density ([3]; 318.16 K): 1025.7 ± 1.3 kg/m3
mass density ([3]; 323.16 K): 1022.3 ± 1.3 kg/m3
refractive index ([4]; 288.15 K): 1.4579 ± 0.0007
refractive index ([4]; 303.15 K): 1.4534 ± 0.0007
refractive index ([4]; 313.15 K): 1.4504 ± 0.0007

CCCOC(C)=O [propyl ethanoate] + CCCC(=O)[O-].C[NH2+]CCO
refractive index ([1]; 313.15 K, x1 = 1): 1.3741 ± 0.0008
mass density ([2]; 308.14 K, x1 = 1): 871.38 ± 1 kg/m3
mass density ([2]; 313.15 K, x1 = 1): 865.7 ± 1 kg/m3
mass density ([2]; 318.15 K, x1 = 1): 860 ± 1 kg/m3
mass density ([2]; 323.15 K, x1 = 1): 854.26 ± 1 kg/m3
